Test results taken from the Deep4Chem optical property database.
Several values for one entry are separate records, joined by “and”; a condition that tells them apart may be missing. Identical values can stand only once.

Test: solvent given as SMILES

Q: With `CC1(C)C(/C=C/C=C/C=C/C=C2/N(CS(=O)(=O)[O-])c3ccc(S(=O)(=O)[O-])cc3C2(C)C)=[N+](CS(=O)(=O)[O-])c2ccc(S(=O)(=O)[O-])cc21` as the molecule, how does the emission maximum (in CO) read?
A: 776 nm

Q: And the emission maximum (in O)?
A: 771 nm

Q: With `Cc1c(COC(=O)c2ccccc2)n2c(OCC(=O)c3ccccc3)c(C)c(=O)n2c1=O` as the molecule, how does the emission maximum (in CCO) read?
A: 457 nm

Q: With `CCOC(=O)c1c(-c2cc3ccccc3oc2=O)nn(-c2ccc(C)c(C)c2)c1C(=O)OCC` as the molecule, how does the emission maximum (in ClCCl) read?
A: 408 nm

Q: For `CCOC(=O)c1cc(C(=O)OCC)c2cccc(O)c2n1`, which emission maximum (in CCO) is on record?
A: 527 nm

Q: With `COc1ccc2cc(C3=[N+]4C(=Nc5c(-c6ccccc6)cc(-c6ccc7cc(OC)ccc7c6)n5[B-]4(F)F)C(c4ccccc4)=C3)ccc2c1` as the molecule, how does the emission maximum (in ClC(Cl)Cl) read?
A: 733 nm

Q: And the emission maximum (in ClCCl)?
A: 733 nm

Q: Which emission maximum (in CCO) does the source give for `CN(C)c1cc2c(cc1F)c(=O)c1cc(F)c(N3CCCCC3)cc1n2C` here?
A: 443 nm

Q: With `COc1ccc(-c2nc(-c3ccccc3)c(-c3ccccc3)[nH]2)cc1` as the molecule, how does the emission maximum (in CO) read?
A: 395 nm

Q: For `Nc1nc2ccc(F)cc2[n+]([O-])n1`, which emission maximum (in CC#N) is on record?
A: 491 nm

Q: And the emission maximum (in O)?
A: 526 nm

Q: With `CCCCn1c2ccc(/C=C(\C#N)c3ccc([N+](=O)[O-])cc3)cc2c2cc(Cn3c(-c4ccc5c(c4)c4ccccc4n5CCCC)nc4ccccc43)ccc21` as the molecule, how does the emission maximum (in C1CCOC1) read?
A: 539 nm

Q: What about the emission maximum (in CC#N) of the same molecule?
A: 580 nm

Q: What about the emission maximum (in CCO) of the same molecule?
A: 520 nm

Q: And the emission maximum (in CCOC(C)=O)?
A: 528 nm

Q: What about the emission maximum (in CN(C)C=O) of the same molecule?
A: 581 nm

Q: What about the emission maximum (in ClCCl) of the same molecule?
A: 568 nm

Q: What about the emission maximum (in O) of the same molecule?
A: 570 nm

Q: And the emission maximum (in c1ccccc1)?
A: 505 nm

Q: With `CC(C)[Si](C#Cc1c2ccccc2c(C#Cc2c3ccccc3c(C#Cc3c4ccccc4c(C#Cc4c5ccccc5c(C#Cc5c6ccccc6c(C#C[Si](C(C)C)(C(C)C)C(C)C)c6ccccc56)c5ccccc45)c4ccccc34)c3ccccc23)c2ccccc12)(C(C)C)C(C)C` as the molecule, how does the emission maximum (in Cc1ccccc1) read?
A: 623 nm

Q: With `CN(C)c1ccc(C2=C3C=C(c4ccc(C#N)cc4)S[C@]34c3ccccc3[C@H]2c2ccccc24)cc1` as the molecule, how does the emission maximum (in ClCCl) read?
A: 601 nm

Q: For `Cc1ccc(/N=C2\N=C(N)c3cccc4cccc2c34)cc1`, which emission maximum (in ClCCl) is on record?
A: 498 nm

Q: Which emission maximum (in ClCCl) does the source give for `[O-][n+]1c(/C=C/c2ccccc2)nc(N2CCOCC2)c2c1CCCC2` here?
A: 535 nm

Q: Which emission maximum (in CCO) does the source give for `CCOC(=O)c1cc(C(=O)OCC)c2cc(N)ccc2n1` here?
A: 537 nm

Q: With `Brc1ccc2[nH]c(-c3ccc(-c4ccc(-c5ccc(-c6nc7cc(Br)ccc7[nH]6)cc5)cc4)cc3)nc2c1` as the molecule, how does the emission maximum (in CN(C)C=O) read?
A: 410 nm

Q: With `CCCCCCCC[Si](C)(C)c1cccc2ccccc12` as the molecule, how does the emission maximum (in C1CCCCC1) read?
A: 329 nm

Q: For `COc1ccc(-c2ncccn2)cc1`, which emission maximum (in ClCCl) is on record?
A: 356 nm

Q: With `Cc1ccc(C(=O)/N=c2\oc3cccc4c5c(-c6ccccc6)oc6cccc(c(c2-c2ccccc2)c34)c65)cc1` as the molecule, how does the emission maximum (in ClC(Cl)Cl) read?
A: 535 nm

Q: Which emission maximum (in ClCCl) does the source give for `C(=C\c1ncc(-c2ccc(OCc3ccccc3)c(OCc3ccccc3)c2)o1)/c1cccc(N2CCN(c3ccccc3)CC2)c1` here?
A: 500 nm

Q: Which emission maximum (in C1CCOC1) does the source give for `Cc1csc2[n+]1[B-](F)(F)n1c(c3cccc4cccc1c43)=N2` here?
A: 500 nm

Q: And the emission maximum (in CC#N)?
A: 499 nm

Q: And the emission maximum (in CCCCCC)?
A: 488 nm

Q: What about the emission maximum (in Cc1ccccc1) of the same molecule?
A: 502 nm

Q: What about the emission maximum (in ClCCl) of the same molecule?
A: 527 nm

Q: For `COc1ccc(C2=[N+]3C(=Nc4c5c6ccccc6c6ccc(C(C)(C)C)cc6c5c(-c5ccc(OC)cc5)n4[B-]3(F)F)c3c2c2cc(C(C)(C)C)ccc2c2ccccc32)cc1`, which emission maximum (in Cc1ccccc1) is on record?
A: 741 nm

Q: With `c1ccc(-c2nc(-c3ccccc3)nc(-c3ccc(-n4c5ccccc5c5ccc6c(c7ccccc7n6-c6ccccc6)c54)cc3)n2)cc1` as the molecule, how does the emission maximum (in Cc1ccccc1) read?
A: 466.56 nm and 461 nm

Q: And the emission maximum (in O=P(c1ccccc1)(c1ccccc1)c1ccc2oc3ccc(P(=O)(c4ccccc4)c4ccccc4)cc3c2c1)?
A: 479 nm

Q: Which emission maximum (in CCOC(C)=O) does the source give for `O=Cc1cc2c(cc3ccc4cccc5ccc2c3c45)[nH]1` here?
A: 438 nm

Q: Which results are given for `CSC1=C2C=C(c3cc4n(c3)[B-](F)(F)[N+]3=CC=CC3=C4c3c(C)cc(C)cc3C)C(C)=[N+]2[B-](F)(F)n2c(C)ccc21`?
A: emission maximum (in C1CCCCC1): 652 nm; emission maximum (in CC#N): 740 nm; emission maximum (in CC(C)=O): 694 nm; emission maximum (in CCOC(C)=O): 664 nm; emission maximum (in Cc1ccccc1): 663 nm

Q: Which emission maximum (in ClCCl) does the source give for `O=P1(c2ccccc2)C(c2ccc(C(F)(F)F)cc2)=Cc2cc3ccccc3cc21` (centres undefined) here?
A: 425 nm

Q: Which emission maximum (in ClCCl) does the source give for `CCN(CC)c1ccc2cc(-c3nc4ccccc4n3-c3ccccc3)c(=O)oc2c1` here?
A: 479 nm

Q: What does the source list for `c1cc2c3c(cccc3c1)NC(c1ccc3ccc4cccc5ccc1c3c45)N2`?
A: emission maximum (in CC#N): 458 nm; emission maximum (in CO): 450 nm; emission maximum (in CS(C)=O): 420 nm; emission maximum (in Cc1ccccc1): 502 nm

Q: Which emission maximum (in ClC(Cl)Cl) does the source give for `N#Cc1nc(N(Cc2ccc(F)cc2)Cc2ccc(F)cc2)c(C#N)nc1N(Cc1ccc(F)cc1)Cc1ccc(F)cc1` here?
A: 577 nm

Q: For `CCCCn1c2ccc(-c3cccs3)cc2c2c1c1c3ccc(-c4cccs4)cc3n(CCCC)c1c1c3ccc(-c4cccs4)cc3n(CCCC)c21`, which emission maximum (in C1CCOC1) is on record?
A: 424 nm

Q: For `CC(C)(C)c1ccc(-c2nnc(-c3c(-n4c5ccccc5c5ccccc54)c(-n4c5ccccc5c5ccccc54)c(-n4c5ccccc5c5ccccc54)c(-n4c5ccccc5c5ccccc54)c3-n3c4ccccc4c4ccccc43)o2)cc1`, which emission maximum (in Cc1ccccc1) is on record?
A: 482 nm

Q: With `N#Cc1ccc2nc3c(=O)[nH]c(=O)[nH]c3nc2c1` as the molecule, how does the emission maximum (in ClCCCl) read?
A: 430 nm

Q: Which emission maximum (in CC#N) does the source give for `F[B-]1(F)OC(c2ccccc2)=CC(c2ccccc2)=[O+]1` here?
A: 398 nm

Q: And the emission maximum (in ClC(Cl)(Cl)Cl)?
A: 389 nm

Q: Which results are given for `Cc1ccc(NC(=O)c2ccc(N(C)C)cc2)cc1`?
A: emission maximum (in C1CCCCC1): 465 nm; emission maximum (in C1CCOC1): 532 nm; emission maximum (in CC#N): 502 nm; emission maximum (in CCOCC): 518 nm
